The source of these data is PubChem BioAssay (NCI).

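Five compound concentrations were applied to cells in 96-well plates for 48 hours; endpoints were derived by simple linear interpolation of the resulting dose-response curve. GI50: concentration for 50% inhibition of growth. TGI: concentration producing complete growth inhibition.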

Among the test systems are HCT-15 colon; MALME-3M melanoma; A549 NSCLC; SK-MEL-2 melanoma; HCC-2998 colon; SF-295 CNS; 786-0 renal; SR leukemia.
What all share (experiment): DTP human tumour cell line panel, 48 h

For `C[C@@H](Oc1cc(-c2cnn(C3CCNCC3)c2)cnc1N)c1c(Cl)cc(F)cc1Cl`, the GI50 was 2.7 µM in the experiment with HCT-15 colon; 1.27 µM in the experiment with MALME-3M melanoma; 1.14 µM in the experiment on A549 NSCLC; 1.95 µM in the experiment with SK-MEL-2 melanoma; 2.42 µM with HCC-2998 colon; 0.505 µM in the experiment with SF-295 CNS. Also, the GI50 with 786-0 renal was 2.13 µM; in the experiment with SR leukemia, 0.0497 µM. Besides, the TGI in the experiment on HCT-15 colon was 12.5 µM; with MALME-3M melanoma, 2.94 µM; in the experiment with A549 NSCLC, 11.3 µM; in the experiment with SK-MEL-2 melanoma, 5.41 µM; in the experiment on HCC-2998 colon, 8.65 µM; in the experiment with SF-295 CNS, 7.23 µM. In addition, the results for the TGI in the experiment with 786-0 renal and with SR leukemia were 4.84 µM and 1.52 µM, respectively.
`CC(=O)/C=C/c1ccc(N(CCO)Cc2ccc(C(C)(C)C)cc2)cc1`: the GI50 in the experiment with HCT-15 colon is 27.8 µM; in the experiment on MALME-3M melanoma it was 65.3 µM; with A549 NSCLC, 56.5 µM; in the experiment with SK-MEL-2 melanoma, 96.7 µM; in the experiment with HCC-2998 colon, 152 µM; with SF-295 CNS, 40.3 µM. For the same compound, the GI50 in the experiment with 786-0 renal is 51.3 µM; in the experiment on SR leukemia it was 39.1 µM. For the same compound, the TGI in the experiment with HCT-15 colon worked out at 124 µM; with MALME-3M melanoma it was 208 µM; in the experiment with A549 NSCLC it was 182 µM; in the experiment on SK-MEL-2 melanoma, 233 µM; in the experiment on HCC-2998 colon, 321 µM; with SF-295 CNS it was 176 µM. In addition, the figures for the total growth inhibition concentration (TGI) with 786-0 renal and in the experiment on SR leukemia were 184 µM and 169 µM, respectively.
For `CCC(=C(c1ccc(OCCN2CCCC2)cc1)c1ccc(OCCN2CCCC2)cc1)c1ccc(Cl)cc1`, the GI50 in the experiment with HCT-15 colon is 0.524 µM; with MALME-3M melanoma it was 0.564 µM; in the experiment on A549 NSCLC, 0.594 µM; in the experiment with SK-MEL-2 melanoma it was 0.688 µM; in the experiment with HCC-2998 colon, 0.566 µM; in the experiment on SF-295 CNS, 0.637 µM. Also, the results for the GI50 with 786-0 renal and in the experiment with SR leukemia were 0.591 µM and 0.347 µM, respectively. Besides, the TGI with HCT-15 colon amounted to 1.04 µM; in the experiment with MALME-3M melanoma, 1.07 µM; with A549 NSCLC, 1.21 µM; in the experiment with SK-MEL-2 melanoma, 1.35 µM; in the experiment on HCC-2998 colon it was 1.07 µM; in the experiment with SF-295 CNS it was 1.23 µM. The values for the TGI with 786-0 renal and in the experiment with SR leukemia were 1.1 µM and 1.09 µM, respectively.
`COc1ccc(C(Nc2ccccn2)c2cc(C(C)(C)C)cc(C(C)(C)C)c2O)cc1` (stereo not given): the TGI is more than 100 µM in the experiment with HCT-15 colon; 24.4 µM in the experiment on MALME-3M melanoma; more than 100 µM in the experiment on A549 NSCLC; 43.2 µM in the experiment with SK-MEL-2 melanoma; 38.7 µM with HCC-2998 colon; 59.3 µM in the experiment on SF-295 CNS. The concentration for total growth inhibition (TGI) in the experiment on 786-0 renal and in the experiment on SR leukemia was more than 100 µM throughout.
`COc1ccc2c(c1)C(=O)c1c-2n(CCCCl)c(=O)c2cc(N)ccc12`: the GI50 is more than 95.7 µM in the experiment with HCT-15 colon; more than 100 µM in the experiment with MALME-3M melanoma; more than 100 µM in the experiment on A549 NSCLC; more than 100 µM with SK-MEL-2 melanoma; more than 100 µM in the experiment with HCC-2998 colon; more than 64.6 µM with SF-295 CNS. Further, the GI50 is more than 63.7 µM in the experiment with 786-0 renal and more than 62.8 µM in the experiment on SR leukemia. Further, the TGI in the experiment with HCT-15 colon, in the experiment on MALME-3M melanoma, in the experiment on A549 NSCLC, in the experiment with SK-MEL-2 melanoma, in the experiment with HCC-2998 colon and in the experiment on SF-295 CNS was more than 100 µM throughout. Besides, the concentration for total growth inhibition (TGI) in the experiment with 786-0 renal and in the experiment with SR leukemia was more than 100 µM each time.
For `Cc1cn2c(/C=C3\C(=O)N(C)c4ccc(Cl)cc43)c(C)nc2s1`, the GI50 with HCT-15 colon was 4.03 µM; in the experiment on MALME-3M melanoma, 69.6 µM; with A549 NSCLC, 6.88 µM; with SK-MEL-2 melanoma, 6.81 µM; in the experiment on HCC-2998 colon, 2.61 µM; in the experiment on SF-295 CNS, 3.63 µM. The figures for the GI50 in the experiment on 786-0 renal and in the experiment with SR leukemia were 4.92 µM and 0.226 µM, respectively. The total growth inhibition concentration (TGI) was more than 100 µM with HCT-15 colon; more than 100 µM in the experiment on MALME-3M melanoma; 32.9 µM in the experiment on A549 NSCLC; more than 100 µM with SK-MEL-2 melanoma; 6.18 µM with HCC-2998 colon; more than 100 µM with SF-295 CNS. Moreover, the TGI in the experiment on 786-0 renal came out at 21.7 µM; in the experiment with SR leukemia, 1.52 µM.
For the compound `CC(C)(C)OC(=O)N1Cc2cc3ccccc3nc2C1CO` (stereo not given), the GI50 in the experiment with HCT-15 colon, in the experiment on MALME-3M melanoma, in the experiment with A549 NSCLC, in the experiment with SK-MEL-2 melanoma, with HCC-2998 colon and in the experiment on SF-295 CNS was more than 100 µM in each case. Besides, the GI50 with 786-0 renal and in the experiment on SR leukemia was more than 100 µM each time. Moreover, the concentration for total growth inhibition (TGI) in the experiment with HCT-15 colon, in the experiment on MALME-3M melanoma, in the experiment with A549 NSCLC, with SK-MEL-2 melanoma, in the experiment on HCC-2998 colon and with SF-295 CNS was more than 100 µM throughout. Moreover, the TGI in the experiment on 786-0 renal and in the experiment on SR leukemia was more than 100 µM throughout.
Take `Cc1nn(-c2ccccc2)c2nc(C)n(-c3ccc(Br)cc3)c(=O)c12`: the concentration for 50% growth inhibition (GI50) in the experiment on HCT-15 colon is 0.416 µM; with MALME-3M melanoma, 12.1 µM; in the experiment on A549 NSCLC, 0.927 µM; with SK-MEL-2 melanoma, 0.654 µM; in the experiment with HCC-2998 colon it was 1.61 µM; in the experiment with SF-295 CNS, 0.357 µM. Moreover, the GI50 with 786-0 renal was 0.542 µM; in the experiment with SR leukemia, 0.439 µM. Further, the TGI with HCT-15 colon was more than 100 µM; with MALME-3M melanoma it was 76.9 µM; with A549 NSCLC, more than 100 µM; in the experiment with SK-MEL-2 melanoma, more than 100 µM; in the experiment on HCC-2998 colon, more than 100 µM; in the experiment on 786-0 renal, more than 100 µM. In the experiment with SR leukemia, this compound registered a total growth inhibition concentration (TGI) of more than 100 µM.
As for `CCCCNCCCCCNc1cc(OC)cc2cccnc12`, the GI50 is 47.9 µM in the experiment on HCT-15 colon; 18 µM in the experiment with MALME-3M melanoma; 20.7 µM in the experiment on A549 NSCLC; 19.6 µM with SK-MEL-2 melanoma; 3.1 µM in the experiment with HCC-2998 colon; 28.4 µM in the experiment with SF-295 CNS. The GI50 in the experiment on 786-0 renal was 14.6 µM; in the experiment with SR leukemia it was 28.6 µM. In addition, the TGI in the experiment on HCT-15 colon was more than 100 µM; in the experiment with MALME-3M melanoma, 42.9 µM; in the experiment with A549 NSCLC it was 51.3 µM; in the experiment on SK-MEL-2 melanoma, 37.5 µM; in the experiment with HCC-2998 colon it was 16.4 µM; in the experiment on SF-295 CNS, 84.9 µM. Further, the concentration for total growth inhibition (TGI) was 28.2 µM in the experiment on 786-0 renal and more than 100 µM in the experiment with SR leukemia.

The GI50 is the concentration that inhibits growth by half. By TGI is commonly meant the concentration at which net growth stops. Read a high TGI as less potent growth arrest.
